This note sets out measurements from PubChem BioAssay (NCI).

What all share (assay): NCI tumour cell line growth inhibition, 48 h
Assay [1] deals with NCI-H226 lung.
For assay [2], the system named is A549 NSCLC.
In assay [3] the test system is MCF7 breast.
The test system of assay [4] is IGROV1 ovarian.
Assay [5] concerns SK-MEL-2 melanoma.
In assay [6] the test system is HCC-2998 colon.
Assay [7] deals with NCI-H460 lung.
Assay [8] concerns MDA-N.
The subject of assay [9] is KM12 colon.
The test system of assay [10] is SNB-75 CNS.

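Compound exposure: 48 hours, 5 concentrations, 96-well plates. At the TGI there is no net growth.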 Where a SMILES comes first, the peptide text is derived from it. [ ]: non-standard residue; d: D form. The star is where a group is joined. Phe(4-NO2) = N[CH](Cc1ccc([N+](=O)[O-])cc1)C(=O)O; Boc = CC(C)(C)OC(=O)*; OBn = c1ccc(CO*)cc1

On to `Cc1ccc(C(=O)OC[C@H]2CC[C@@H](n3cc(N(C)C4CCCCC4)c(=O)[nH]c3=O)O2)cc1`, for which the TGI in [1] was 56.6 µM; in assay [2], above 100 µM; in [3], 47.2 µM; in assay [4] it was above 100 µM; in assay [5], above 100 µM; in assay [6] it was above 100 µM. In addition, the TGI is above 100 µM in assay [7], 90.7 µM in assay [8] and 40.9 µM in assay [9].
`CN(C)C(=S)N/N=C\C=N/NC(=S)N(C)C`: the TGI in assay [1] was above 81.9 µM; in [2], above 100 µM; in assay [3] it was above 100 µM; in [4] it was above 100 µM; in assay [5] it was above 100 µM; in assay [10], above 100 µM. Further, the TGI in assay [6], in assay [7], in [8] and in [9] was above 100 µM in each case.
As to `O=c1[nH]nc(Cc2ccccc2)n1/N=C/c1c[nH]c2ccccc12`, the TGI was above 100 µM in [1]; above 100 µM in assay [2]; above 100 µM in assay [3]; above 100 µM in [4]; above 100 µM in assay [5]; 51.3 µM in assay [10]. The TGI in assay [6], in assay [7], in assay [8] and in assay [9] was above 100 µM throughout.
As to `Cc1ccc(C(=O)N(C2CCCCC2)C2CCCCC2)cc1N=NN(C)C`, the TGI stood at 39.5 µM in assay [1]; 31.8 µM in assay [2]; 29.7 µM in [3]; 32.4 µM in assay [4]; 7.29 µM in assay [5]; 29.4 µM in [6]. Besides, the TGI was found to be 35.5 µM in assay [7], 28.3 µM in assay [8] and 18.7 µM in assay [9].
`Brc1ccc(N=NN2CCCCC2)cc1`: the TGI was above 100 µM in [1]; above 100 µM in assay [3]; above 100 µM in [4]; 45.4 µM in [5]; above 100 µM in [10]; above 100 µM in assay [7]. In addition, the TGI in assay [8] and in [9] was above 100 µM throughout.
In the case of `OC(C1CCC=NN1C(O)(C(F)(F)F)C(F)(F)F)(C(F)(F)F)C(F)(F)F` (stereo not drawn), the TGI in assay [1], in assay [2], in [3], in [4], in assay [5] and in assay [10] was above 10 µM throughout. For the same molecule, the TGI in [6], in assay [7], in assay [8] and in [9] was above 10 µM each time.
Regarding `CC(C)(CN)CN`, the TGI in assay [1], in assay [2], in assay [3], in assay [4], in assay [5] and in assay [10] was above 100 µM each time. Also, the TGI in [6], in assay [7], in [8] and in assay [9] was above 100 µM in each case.
On to `Oc1ccc(/C=C\c2nnc(/C=C\c3ccc(O)c(O)c3)s2)cc1O`, for which the TGI was 20 µM in assay [1]; above 52.8 µM in [2]; 12.8 µM in [3]; 20.7 µM in [4]; 40.7 µM in [5]; 15.3 µM in assay [10]. For the same molecule, the TGI in [6] amounted to 23.9 µM; in [7] it was 15.6 µM; in assay [8], 20.8 µM; in assay [9], 18.9 µM.
With `CC(C)/C(Cl)=N/OC(=O)Nc1ccc(F)c(Cl)c1`, the TGI in assay [1] amounted to 30.9 µM; in assay [2], 37.4 µM; in [3] it was 22.4 µM; in [4], 28.4 µM; in [5], 34.2 µM; in assay [10], 32 µM. Further, the TGI in [6] amounted to 28.1 µM; in assay [7], 35.4 µM; in assay [8] it was 14.8 µM; in assay [9] it was 30.6 µM.
Turning to `COc1ccc(N2C=Nn3c(nc4sc(C)c(C)c4c3=O)C2)cc1`, the TGI in assay [1], in [2], in [3], in assay [4], in [5] and in assay [10] was above 100 µM throughout. Moreover, the TGI in assay [6], in [7], in assay [8] and in assay [9] was above 100 µM throughout.
Take `COc1cc(-c2nc3cc(F)ccc3s2)ccc1O`: the TGI in assay [1] was above 100 µM; in assay [2] it was above 100 µM; in assay [3], above 100 µM; in assay [4], above 100 µM; in assay [5], above 100 µM; in assay [6], 55.5 µM. The TGI in assay [7], in assay [8] and in assay [9] was above 100 µM in each case.
With `COC(=O)CCCc1ccc2c(c1)CC1(C2)Cc2cc3c(cc2C1)CCCC3`, the TGI in assay [1] is above 100 µM; in assay [2], 67.7 µM; in assay [3] it was above 100 µM; in assay [4], above 100 µM; in [5] it was 57.1 µM; in assay [6] it was 74.5 µM. In addition, the TGI in assay [8] was 42.3 µM; in assay [9] it was 80.6 µM.
As to `CC1=NOC2(C1)/C(=N/O)CCC/C2=N\O` (stereo not drawn), the TGI in [1], in [2], in assay [3], in assay [4], in assay [5] and in [10] was above 100 µM throughout. Besides, the TGI in assay [6], in [7], in assay [8] and in [9] was above 100 µM in each case.
With `Cn1c(=O)c2c(nc(NCCCCl)n2CC(=O)O)n(C)c1=O`, the TGI in assay [1], in [2], in [3], in assay [4], in assay [5] and in [10] was above 100 µM each time. In addition, the TGI in assay [6], in [7], in assay [8] and in assay [9] was above 100 µM throughout.
For the molecule `CCCCOC(=O)C(=O)C(CCC(=O)c1ccc(C)cc1)C(=O)C=C(C)C` (stereo not drawn), the TGI in [1], in [2], in assay [3], in [4], in assay [5] and in assay [10] was above 100 µM in each case. In addition, the TGI in assay [6], in [7], in [8] and in [9] was above 100 µM in each case.
As for `CC(C)Oc1c(-c2c(OC(C)C)c(=O)c2=O)c(=O)c1=O`, the TGI is above 100 µM in assay [1]; above 100 µM in assay [2]; above 41.8 µM in assay [3]; above 51.5 µM in assay [4]; above 89.1 µM in assay [5]; above 71.2 µM in assay [10]. Further, the TGI in assay [6] is above 100 µM; in assay [7], above 100 µM; in assay [8], above 38.6 µM; in [9], above 59.6 µM.
With `Cc1cnoc1NC1=CC(=O)C(=O)c2ccccc21`, the TGI in [1] is above 100 µM; in assay [2], 63.8 µM; in [3] it was 16.4 µM; in [4], above 100 µM; in assay [5] it was 10.5 µM; in assay [10], above 100 µM. The TGI is above 100 µM in assay [7], 3.01 µM in [8] and above 100 µM in assay [9].
As for `COC(=O)CCC(NC(=O)OC(C)(C)C)C(=O)NC(Cc1ccc([N+](=O)[O-])cc1)C(=O)NCC(=O)OCc1ccccc1` (stereo not drawn) (Boc-Glu(OMe)-[Phe(4-NO2)]-Gly-OBn; configuration not given here), the TGI in assay [1] was above 100 µM; in [2] it was above 100 µM; in assay [3] it was above 100 µM; in [4], above 100 µM; in [5], above 100 µM; in [10] it was 48.4 µM. Further, the TGI in [6], in assay [7], in assay [8] and in assay [9] was above 100 µM in each case.
For `COc1cc2c3cc1Oc1c(O)c(OC)cc4c1[C@H](Cc1ccc(cc1)Oc1cc(ccc1O)C[C@H]3N(C)CC2)N(C)CC4`, the TGI in assay [1] is 58.8 µM; in [2], 39.6 µM; in assay [3] it was 44.4 µM; in [4], 36.1 µM; in [5], 25.6 µM; in assay [10], 43 µM. The TGI in assay [6] was 22.8 µM; in assay [7], 26.8 µM; in assay [8] it was 24.7 µM; in [9], 23.7 µM.
As for `CCN(CC)Cc1nc2sc3c(c2c(=O)n1-c1ccccc1)CCCC3`, the TGI in [1] was 33 µM; in assay [2], 55 µM; in [3] it was 36 µM; in [4] it was 39 µM; in [5], 38.6 µM; in assay [10] it was 47.4 µM. Also, the TGI was 33.6 µM in assay [6], 40.8 µM in assay [7], 58 µM in [8] and above 100 µM in assay [9].
Take `CC1(C)OC2OC(COC(=O)C=[N+]=[N-])C3OC(C)(C)OC3C2O1` (stereo not drawn): the TGI in [1], in assay [3], in assay [4], in assay [5], in assay [6] and in assay [7] was above 100 µM throughout. For the same molecule, the TGI in [8] and in [9] was above 100 µM throughout.
`COc1cccc(N2C(=O)C3c4[nH]c5ccccc5c4C4c5ccccc5CCC4C3C2=O)c1` (stereo not drawn): the TGI in assay [1] was above 7.52 µM; in assay [2], above 10 µM; in assay [3] it was above 10 µM; in [4], above 10 µM; in [5], above 10 µM; in assay [10] it was 6.3 µM. Moreover, the TGI in [6], in [7], in [8] and in assay [9] was above 10 µM each time.
As to `Cc1cn(C2CC(n3cc(Cn4cc(F)c(=O)[nH]c4=O)nn3)C(CO)O2)c(=O)[nH]c1=O` (stereo not drawn), the TGI in assay [1], in assay [2], in [3], in assay [4], in assay [5] and in assay [10] was above 100 µM throughout. For the same molecule, the TGI in assay [6], in assay [8] and in [9] was above 100 µM each time.
Regarding `CSc1c(C(=O)Nc2ccccc2)c(N)nn1-c1ccccc1`, the TGI in assay [1], in [2], in assay [3], in [5], in assay [10] and in assay [6] was above 100 µM in each case. For the same molecule, the TGI in assay [7], in [8] and in assay [9] was above 100 µM each time.
Turning to `COc1ccc2c(c1)O[C@@H]1C(O)Oc3cc(OC)c(OC)cc3[C@]1(O)C2=O` (stereo partly drawn), the TGI in assay [1] is 83.9 µM; in assay [2] it was above 100 µM; in assay [3], above 100 µM; in assay [4], above 100 µM; in assay [5], above 100 µM; in assay [10], above 100 µM. The TGI in assay [7], in assay [8] and in [9] was above 100 µM each time.
Turning to `CN1CC2=C(OC(N)=C(C#N)C2c2cccs2)/C(=C/c2cccs2)C1` (stereo not drawn), the TGI in assay [1] was above 100 µM; in assay [2] it was above 75.2 µM; in assay [3], 8.33 µM; in assay [4] it was above 65.8 µM; in assay [5] it was above 64.4 µM; in assay [6], above 100 µM. Further, the TGI in assay [7] is 58.9 µM; in [8], above 47.3 µM; in assay [9] it was above 78.9 µM.
On to `COc1ccc(N[C@H](CS(=O)c2ccc(C)cc2)c2ccc(F)cc2)cc1` (stereo partly drawn), for which the TGI in [2] is above 100 µM; in assay [3] it was above 100 µM; in [4], 47.4 µM; in [5], above 100 µM; in assay [10], 81.7 µM; in assay [6], above 100 µM. In addition, the TGI in assay [7], in assay [8] and in assay [9] was above 100 µM throughout.
In the case of `N#CC1=C2Sc3ccccc3N2[C@H](c2ccccc2)[C@H]2COC(=O)[C@@H]12`, the TGI in assay [1] is above 100 µM; in assay [2] it was above 100 µM; in assay [3], above 100 µM; in assay [5], above 100 µM; in assay [10], 97.1 µM; in [6], above 100 µM. In addition, the TGI in assay [8] and in assay [9] was above 100 µM each time.
